Data: ChEMBL document CHEMBL5042495, “Lead Optimization of Influenza Virus RNA Polymerase Inhibitors Targeting PA-PB1 Interaction” (J Med Chem, 2022)

Key:
[1] = Cytotoxicity in dog MDCK cells assessed as reduction in cell viability incubated for 48 hrs by crystal violet staining based assay; format: toxicity, Canis lupus familiaris
[2] = system: Influenza A virus; assay: Antiviral activity against Influenza A virus A/WSN/33(H1N1) strain infected in MDCK cells assessed as reduction in viral infection incubated for 48 hrs by crystal violet staining based assay; format: functional, organism-based

SMILES | CC50 at 48 h [1] | EC50 [2]
Cc1ccc2cc(C(C)N(Cc3ccc(F)cc3)Cc3ccc(C(C)C)cc3)c(=O)[nH]c2c1 (centres undefined) | > 33 µM | 1900 nM
CCc1ccc2[nH]c(=O)c(CN(Cc3ccc(C(C)(C)C)cc3)[C@H](C)c3ccc(F)cc3)cc2c1 | > 5 µM | 
COc1ccc(CN(Cc2ccc(C(C)(C)C)cc2)Cc2cc3ccccc3[nH]c2=O)cc1 | 1.8 µM | 
Cc1ccc2cc(CN(Cc3ccc(Cl)cc3)Cc3ccc(C(C)C)cc3)c(=O)[nH]c2c1 | > 33 µM | 6100 nM
COc1ccc2[nH]c(=O)c(CN(Cc3ccc(N(C)C)cc3)Cc3ccc(C(C)(C)C)cc3)cc2c1 | 8.5 µM | 460 nM
Cc1ccc2[nH]c(=O)c(CN(Cc3ccc(OC(C)C)cc3)Cc3ccc(C(C)(C)C)cc3)cc2c1 | > 5 µM | 1500 nM
COc1ccc([C@H](C)N(Cc2ccc(OC(F)(F)F)cc2)Cc2cc3ccccc3[nH]c2=O)cc1 | > 10 µM | 1900 nM
CCc1ccc2cc(CN(Cc3ccc(C(C)(C)C)cc3)C3CCCC3)c(=O)[nH]c2c1 | > 9 µM | 
Cc1ccc2[nH]c(=O)c(CN(Cc3ccc(OCC(=O)OC(C)(C)C)cc3)Cc3ccc(C(C)(C)C)cc3)cc2c1 | > 10 µM | 1800 nM
Cc1ccc2[nH]c(=O)c(CN(Cc3ccc(C(C)(C)C)cc3)Cc3ccc(N(C)C)c(Cl)c3)cc2c1 | > 10 µM | 220 nM
CC(c1ccc(N(C)C)c(Cl)c1)N(Cc1ccc(OC(F)(F)F)cc1)Cc1cc2cc(Br)ccc2[nH]c1=O (centres undefined) | 4.7 µM | 
Cc1ccc2cc(CN(Cc3ccc(F)cc3)Cc3ccc(C(C)C)cc3)c(=O)[nH]c2c1 | > 33 µM | 2000 nM
CCc1ccc2[nH]c(=O)c(CN(CCCO)Cc3ccc(C(C)(C)C)cc3)cc2c1 | > 10 µM | 
COc1ccc(C(C)N(Cc2ccc(C(C)(C)C)cc2)Cc2cc3cc(C4CC4)ccc3[nH]c2=O)cc1Cl (centres undefined) | > 10 µM | 69 nM
CCc1ccc2[nH]c(=O)c(CN(Cc3ccc(F)cc3)Cc3ccc4ccccc4c3)cc2c1 | > 5 µM | 2100 nM
Cc1ccc2[nH]c(=O)c(CN(Cc3ccc(F)cc3)Cc3cccc4ccccc34)cc2c1 | > 5 µM | 1800 nM
Cc1ccc2cc(CN(Cc3ccc(C(C)(C)C)cc3)CC3CCCCC3)c(=O)[nH]c2c1 | > 10 µM | 1900 nM
CC(C)c1ccc2[nH]c(=O)c(CN(Cc3ccc(C(C)(C)C)cc3)C(C)c3ccc(N(C)C)c(Cl)c3)cc2c1 (centres undefined) | > 10 µM | 680 nM
Cc1cccc2cc(C(C#N)N(Cc3ccccc3)Cc3ccc(F)cc3)c(=O)[nH]c12 (centres undefined) | > 83 µM | 38000 nM
Cc1ccc2[nH]c(=O)c(CN(Cc3ccc(SC(F)F)cc3)Cc3ccc(C(C)(C)C)cc3)cc2c1 | > 5 µM | 650 nM
Cc1ccc2cc(CN(Cc3ccc(F)cc3)C(=O)c3ccccc3)c(=O)[nH]c2c1 | > 33 µM | 
Cc1ccc2[nH]c(=O)c(CN(CCCO)Cc3ccc(C(C)(C)C)cc3)cc2c1 | > 10 µM | 

SMILES | CC50 at 48 h [1] | EC50 [2]
CCc1ccc2[nH]c(=O)c(CN(Cc3ccc(F)cc3)Cc3ccc(C(C)(C)C)cc3)cc2c1 | > 33 µM | 640 nM
Cc1ccc2[nH]c(=O)c(CN(Cc3ccc(C(C)(C)C)cc3)[C@@H](C)c3ccc(F)cc3)cc2c1 | > 5 µM | 500 nM
Cc1cccc2cc(C(C#N)N(Cc3ccccc3)Cc3ccc(C(C)C)cc3)c(=O)[nH]c12 (centres undefined) | > 83 µM | 16000 nM
COc1ccc([C@H](C)N(Cc2ccc(C(C)(C)C)cc2)Cc2cc3cc(OC)ccc3[nH]c2=O)cc1 | 4.1 µM | 120 nM
Cc1ccc2[nH]c(=O)c(CN(Cc3ccc(C(N)=O)cc3)Cc3ccc(C(C)(C)C)cc3)cc2c1 | > 5 µM | 
Cc1ccc2[nH]c(=O)c(CN(Cc3ccc(C(C)(C)C)cc3)[C@H](C)c3ccc(F)cc3)cc2c1 | > 5 µM | 
COc1ccc([C@H](C)N(Cc2ccc(OC(F)(F)F)cc2)Cc2cc3cc(Cl)ccc3[nH]c2=O)cc1 | > 10 µM | 3600 nM
CN(C)c1ccc(CN(Cc2ccc(C(C)(C)C)cc2)Cc2cc3cc(Cl)ccc3[nH]c2=O)cc1 | > 10 µM | 1500 nM
Cc1ccc2cc(CN(Cc3ccc(C(C)C)cc3)Cc3ccccc3F)c(=O)[nH]c2c1 | > 33 µM | 1800 nM
CCCc1ccc2[nH]c(=O)c(CN(Cc3ccc(F)cc3)Cc3ccc(C(C)(C)C)cc3)cc2c1 | 8.4 µM | 28000 nM
Cc1ccc2[nH]c(=O)c(CN(Cc3ccc(C(C)(C)C)cc3)C(C)c3ccc(F)cc3)cc2c1 (centres undefined) | > 33 µM | 1300 nM
Cc1ccc2cc(CN(Cc3ccc(F)cc3)Cc3ccc(C(F)(F)F)cc3)c(=O)[nH]c2c1 | > 33 µM | 2100 nM
Cc1ccc2cc(CN(Cc3ccc(C(C)C)cc3)Cc3cccc(F)c3)c(=O)[nH]c2c1 | > 33 µM | 2100 nM
COc1ccc([C@H](C)N(Cc2ccc(C(C)(C)C)cc2)Cc2cc3ccccc3[nH]c2=O)cc1 | 1.8 µM | 
Cc1ccc2[nH]c(=O)c(CN(Cc3ccccc3)Cc3ccc(C(C)(C)C)cc3)cc2c1 | > 5 µM | 920 nM
CC(C)c1ccc2[nH]c(=O)c(CN(Cc3ccc(F)cc3)Cc3ccc(C(C)(C)C)cc3)cc2c1 | 7.9 µM | 1900 nM
Cc1ccc2[nH]c(=O)c(CN(Cc3ccc(OCCO)cc3)Cc3ccc(C(C)(C)C)cc3)cc2c1 | > 5 µM | 
Cc1ccc2[nH]c(=O)c(CN(Cc3ccc(C#N)cc3)Cc3ccc(C(C)(C)C)cc3)cc2c1 | > 5 µM | 500 nM
Cc1ccc2[nH]c(=O)c(CN(Cc3ccc(OCC(=O)O)cc3)Cc3ccc(C(C)(C)C)cc3)cc2c1 | > 10 µM | 2700 nM
CCc1ccc2[nH]c(=O)c(CN(Cc3ccc(C(C)(C)C)cc3)[C@H](CO)c3ccccc3)cc2c1 | > 10 µM | 
Cc1ccc2cc(CN(Cc3ccc(F)cc3)Cc3ccc(C(C)(C)C)cc3)c(=O)[nH]c2c1 | > 33 µM | 1600 nM
Cc1ccc2[nH]c(=O)c(CN(Cc3ccc(C(C)(C)C)cc3)C(C)c3ccc(N(C)C)c(Cl)c3)cc2c1 (centres undefined) | 9.8 µM | 120 nM

SMILES | CC50 at 48 h [1] | EC50 [2]
Cc1ccc2cc(CN(Cc3ccc(C(C)(C)C)cc3)Cc3cc(F)cc(F)c3)c(=O)[nH]c2c1 | > 33 µM | 3500 nM
COCOc1ccc(CN(Cc2ccc(C(C)(C)C)cc2)Cc2cc3cc(C)ccc3[nH]c2=O)cc1 | 6.4 µM | 380 nM
CCCCOc1ccc(CN(Cc2ccc(C(C)(C)C)cc2)Cc2cc3cc(C)ccc3[nH]c2=O)cc1 | > 5 µM | 
CC(c1ccc(N(C)C)c(Cl)c1)N(Cc1ccc(C(C)(C)C)cc1)Cc1cc2cc(Br)ccc2[nH]c1=O (centres undefined) | 6.1 µM | 100 nM
Cc1ccc2[nH]c(=O)c(CN(Cc3ccc(N(C)C)cc3)Cc3ccc(C(C)(C)C)cc3)cc2c1 | > 5 µM | 460 nM
COc1ccc(C(C)N(Cc2ccc(C(C)(C)C)cc2)Cc2cc3cc(Br)ccc3[nH]c2=O)cc1Cl (centres undefined) | > 10 µM | 530 nM
CCc1ccc2[nH]c(=O)c(CN(Cc3ccc(C(C)(C)C)cc3)C(C)c3ccc(OC)c(Cl)c3)cc2c1 (centres undefined) | > 10 µM | 170 nM
CCc1ccc2[nH]c(=O)c(CN(Cc3cccc(F)c3)Cc3ccc4ccccc4c3)cc2c1 | > 5 µM | 4100 nM
Cc1ccc2[nH]c(=O)c(CN(Cc3ccc(OC(F)F)cc3)Cc3ccc(C(C)(C)C)cc3)cc2c1 | > 5 µM | 270 nM
Cc1ccc2[nH]c(=O)c(CN(Cc3ccc(C(C)(C)C)cc3)[C@H](CO)c3ccccc3)cc2c1 | > 10 µM | 
Cc1ccc2cc(CNCc3ccc(F)cc3)c(=O)[nH]c2c1 | > 33 µM | 
Cc1cccc2cc(CN(Cc3ccc(F)cc3)Cc3ccc(C(C)(C)C)cc3)c(=O)[nH]c12 |  | 1800 nM
CCCCC(c1cc2ccc(C)cc2[nH]c1=O)N(Cc1ccc(F)cc1)Cc1ccc(C(C)C)cc1 (centres undefined) | > 33 µM | 
Cc1ccc2cc(CN(Cc3ccc(Cl)cc3)Cc3ccc(Cl)cc3)c(=O)[nH]c2c1 | > 33 µM | 
C[C@H](c1ccc(OC(F)(F)F)cc1)N(Cc1ccc(C(C)(C)C)cc1)Cc1cc2cc(C3CC3)ccc2[nH]c1=O |  | 2010 nM
Cc1ccc2cc(C(N(Cc3ccc(F)cc3)Cc3ccc(C(C)C)cc3)C(F)(F)F)c(=O)[nH]c2c1 (centres undefined) | > 33 µM | 
Cc1ccc2cc(CN(Cc3ccc(C(C)(C)C)cc3)C3CCCC3)c(=O)[nH]c2c1 | > 10 µM | 
Cc1ccc2[nH]c(=O)c(CN(Cc3ccc(F)cc3)Cc3ccc(-c4ccccc4)cc3)cc2c1 | > 5 µM | 
CCc1ccc2[nH]c(=O)c(CN(Cc3ccc(F)cc3)Cc3cccc4ccccc34)cc2c1 | > 5 µM | 
CCc1ccc2[nH]c(=O)c(CN(Cc3ccc(F)cc3)Cc3ccc(-c4ccccc4)cc3)cc2c1 | > 5 µM | 
